Reference: paper PMC9841532, “Exploring the Effect of Halogenation in a Series of Potent and Selective A2B Adenosine Receptor Antagonists” (Journal of Medicinal Chemistry, 2022)
Converted amounts (≈) assume the structure as drawn. Read-outs that look alike come from different tables or passages of the source.

How the values were obtained:
CYP3A4 = biological target: T1, CYP3A4 (Homo sapiens, UniProt P08684); experiment: CYP3A4 inhibition (fluorescence, substrates DBF or 7-BFC); assay type: biochemical; settings: for CYP3A4 % inh. at 10 μM, 7-BFC: substrate 7-benzyloxy-4-trifluoromethyl-coumarin; for IC50: IC50 obtained by extrapolation with analysis software, read-out: CYP3A4 IC50, DBF
T1 construct: host or cells: insect cell microsomes
Method: To identify potential metabolic liabilities within the series here documented, the selected A2BAR antagonists were tested in vitro for CYP3A4 inhibitory activity.
The inhibitory activity of selected compounds was evaluated by following a previously described method.[31] […] The plate was then pre-incubated at 37 °C for 5 min and the reaction initiated by the addition of a pre-warmed enzyme/substrate (E/S) mix. The E/S mix contained buffer (KH2PO4), c-DNA-expressed P450 in insect cell microsomes, substrate (DBF: dibenzylfluorescein or 7-BFC: 7-benzyloxy-4-trifluoromethyl-coumarin) and other components to give the final assay concentrations in a reaction volume of 200 μL. Reactions were terminated after various times (a specific time for each cytochrome) by addition of STOP solution (ACN/Tris–HCl 0.5 M 80:20, and NaOH 2 N for CYP3A4). Fluorescence per well was measured using a fluorescence plate reader (Tecan Infinite M1000 PRO), and percentage of inhibition was calculated. In silico predictions were performed using free web-based models (FAME 3, SmartCYP, and Xenosite).[62]−[64]

hA1AR = biological target: T2, hA1AR (Homo sapiens, UniProt P30542); experiment: Radioligand binding competition, [3H]DPCPX, membranes from CHO-A1 cells; settings: 1 μM, [3H]DPCPX, human CHO cells, n = 2
T2 sequence (P30542 1-326): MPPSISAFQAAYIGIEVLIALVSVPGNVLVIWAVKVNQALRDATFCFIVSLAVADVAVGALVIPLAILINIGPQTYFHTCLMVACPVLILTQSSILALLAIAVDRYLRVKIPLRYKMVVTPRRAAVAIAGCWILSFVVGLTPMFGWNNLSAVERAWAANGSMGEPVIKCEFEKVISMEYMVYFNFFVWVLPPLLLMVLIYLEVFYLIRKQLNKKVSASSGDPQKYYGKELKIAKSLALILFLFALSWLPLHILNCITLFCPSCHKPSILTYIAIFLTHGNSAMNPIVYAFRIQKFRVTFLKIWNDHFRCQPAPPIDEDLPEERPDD
Outline: (§1)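 Racemates, plus selected enantiomers after chiral resolution, were tested at 25 °C, with a 60 min incubation for one subtype and 30 min for others. Non-specific binding was defined with 10 μM or 100 μM R-PIA. Bound radioactivity was counted after washing and filtration.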

hA3AR = biological target: T3, hA3AR (Homo sapiens, UniProt P0DMS8); experiment: Radioligand binding competition, [3H]NECA, membranes from HeLa-A3 cells; settings: 1 μM, [3H]NECA, human HeLa cells, n = 2
T3 construct: expressed in transfected cells; host or cells: HeLa (HeLa-A3) cell membranes
T3 sequence (P0DMS8 1-318): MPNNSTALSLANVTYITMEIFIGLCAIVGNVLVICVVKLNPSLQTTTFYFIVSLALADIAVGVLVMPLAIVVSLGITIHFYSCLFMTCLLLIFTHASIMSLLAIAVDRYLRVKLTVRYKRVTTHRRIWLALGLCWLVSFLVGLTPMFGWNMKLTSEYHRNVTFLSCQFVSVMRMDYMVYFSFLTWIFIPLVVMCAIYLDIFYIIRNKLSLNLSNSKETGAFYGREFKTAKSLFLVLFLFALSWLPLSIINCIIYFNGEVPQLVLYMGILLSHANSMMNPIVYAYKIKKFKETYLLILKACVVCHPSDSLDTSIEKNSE
Outline: as §1

hA2BAR = biological target: T4, hA2BAR (Homo sapiens, UniProt P29275); experiment: Radioligand binding competition, [3H]DPCPX, membranes from HEK-293-A2B cells; parameters: Exp. dG: unit not given here; settings: for Ki: read-out: Ki hA2B; for Exp. dG: experimental binding free energy, Supplementary Table S3, unit not given (errors in kcal/mol)
T4 construct: host or cells: HEK-293 (HEK-293-A2B) cell membranes
T4 sequence (P29275 1-332): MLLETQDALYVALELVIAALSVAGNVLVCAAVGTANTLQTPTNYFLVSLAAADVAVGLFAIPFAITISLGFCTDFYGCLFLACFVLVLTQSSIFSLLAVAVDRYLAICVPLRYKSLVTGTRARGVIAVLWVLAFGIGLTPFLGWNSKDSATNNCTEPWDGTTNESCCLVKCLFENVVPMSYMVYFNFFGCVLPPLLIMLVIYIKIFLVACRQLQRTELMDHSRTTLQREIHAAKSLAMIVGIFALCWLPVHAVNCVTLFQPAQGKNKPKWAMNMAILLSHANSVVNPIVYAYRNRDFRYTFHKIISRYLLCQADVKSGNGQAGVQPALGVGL
Outline: as §1

[1] = Solubility determination (nephelometry); assay type: physicochemical; settings: 1:99 DMSO/PSB buffer, PBS pH 7, 37 °C
Method: The solubility of selected compounds was evaluated by following a previously described method.[31] A 10 mM stock solution of the compound was serially diluted in 100% DMSO, and 2.5 μL of this solution was added to a 384-well UV-transparent plate (Greiner) containing 47.5 μL of PBS (pH = 7). The plate was incubated at 37 °C for 4 h, and the light scattering was measured in a NEPHELOstar Plus reader (BMG LABTECH). The data was fitted to a segmented linear regression for measuring the compound solubility.

hA2AAR = biological target: T5, hA2AAR (Homo sapiens, UniProt P29274); experiment: Radioligand binding competition, [3H]ZM241385, membranes from HeLa-A2A cells; settings: 1 μM, [3H]ZM241385, human HeLa cells, n = 2
T5 construct: expressed in transfected cells; host or cells: HeLa (HeLa-A2A) cell membranes
Outline: as §1

[2] = displacement of specific [3H]DPCPX binding in human HEK-293 cells, n = 3

T1 sequence (P08684 whole entry): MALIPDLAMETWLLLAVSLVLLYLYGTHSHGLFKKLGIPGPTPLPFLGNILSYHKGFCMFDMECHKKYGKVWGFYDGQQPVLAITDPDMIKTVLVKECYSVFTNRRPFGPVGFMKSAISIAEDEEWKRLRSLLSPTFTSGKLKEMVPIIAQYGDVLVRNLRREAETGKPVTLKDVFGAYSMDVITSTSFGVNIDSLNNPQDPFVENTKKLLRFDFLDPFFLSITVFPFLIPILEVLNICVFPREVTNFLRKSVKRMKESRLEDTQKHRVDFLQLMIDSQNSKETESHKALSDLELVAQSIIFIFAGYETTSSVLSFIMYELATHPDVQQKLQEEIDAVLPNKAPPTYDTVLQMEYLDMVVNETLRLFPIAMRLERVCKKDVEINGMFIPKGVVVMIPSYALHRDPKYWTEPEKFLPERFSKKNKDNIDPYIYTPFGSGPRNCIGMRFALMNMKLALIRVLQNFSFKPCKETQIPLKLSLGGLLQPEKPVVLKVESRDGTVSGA
T5 sequence (P29274 whole entry): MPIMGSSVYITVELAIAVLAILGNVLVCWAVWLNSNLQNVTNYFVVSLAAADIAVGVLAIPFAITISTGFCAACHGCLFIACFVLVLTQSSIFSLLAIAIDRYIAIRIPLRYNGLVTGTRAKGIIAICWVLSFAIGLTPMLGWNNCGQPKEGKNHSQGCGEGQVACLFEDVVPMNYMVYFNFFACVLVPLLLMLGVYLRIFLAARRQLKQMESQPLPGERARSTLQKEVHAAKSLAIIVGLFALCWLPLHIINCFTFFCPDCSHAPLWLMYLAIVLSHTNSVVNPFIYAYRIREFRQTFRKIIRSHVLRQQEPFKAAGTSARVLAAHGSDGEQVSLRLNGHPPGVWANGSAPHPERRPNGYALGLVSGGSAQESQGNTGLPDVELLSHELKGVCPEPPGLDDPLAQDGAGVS

| CYP3A4 % inh. at 10 μM, 7-BFC (CYP3A4; 10 μM) [%] | IC50 (CYP3A4; substrate dibenzylfluorescein) [nM] | % at 1 μM hA1 (percentage displacement of specific binding) (hA1AR) [%] | % at 1 μM hA3 (percentage displacement of specific binding) (hA3AR) [%] | Ki (hA2BAR; [2]) [nM] | Ki (hA2BAR) [nM] | solubility at 4 h [1] [µM] | % at 1 μM hA2A (percentage displacement of specific binding) (hA2AAR) [%] | Exp. dG (hA2BAR) | CYP3A4 % inh. at 10 μM, DBF (CYP3A4; 10 μM, substrate dibenzylfluorescein) [%] | Structure (SMILES) |
| --- | --- | --- | --- | --- | --- | --- | --- | --- | --- | --- |
| 52 | 2260 ± 300 | 25 | 10 | 5.23 ± 0.4 | < 10 | 70.7 (≈ 29.4 µg/mL) | 2 | – | – | CC1=C(C(=O)OC(C)C)C(c2ccco2)n2c(nc3cc(Br)ccc32)N1 (centres unmarked) [16r] |
| 54 | 3680 ± 470 | 35 | 2 | 5.03 ± 0.3 | < 10 | 23.7 (≈ 8.81 µg/mL) | 24 | -11.31 | – | CC1=C(C(=O)OC(C)C)C(c2ccco2)n2c(nc3cc(Cl)ccc32)N1 (centres unmarked) [16j] |
| 63 | – | 11 | 3 | 3.05 ± 0.7 | < 10 | 47.5 (≈ 16.9 µg/mL) | 2 | -11.61 | 40 | CC1=C(C(=O)OC(C)C)C(c2ccco2)n2c(nc3cc(F)ccc32)N1 (centres unmarked) [16b] |
